The subject of assay [1] is hGH-RH(1–29)NH2 induced GH release. The assay is described as follows: Inhibition of GH release in superfused rat pituitary system. The assay is classed as cell-based. The conditions noted are these: antagonist 30 nM; for Inhibition of GH release (%) 30 min: 1 nM hGH-RH(1–29)NH2 30 min later; for Inhibition of GH release (%) 60 min: 1 nM hGH-RH(1–29)NH2 60 min later; for Inhibition of GH release (%) 90 min: 1 nM hGH-RH(1–29)NH2 90 min later; for Inhibition of GH release (%) 120 min: 1 nM hGH-RH(1–29)NH2 120 min later; for Inhibition of GH release (%) 0 min: 1 nM hGH-RH(1–29)NH2 at 0 min. The method, then: Superfused Rat Pituitary System.
The analogs were tested in vitro in a test described earlier (S. Vigh and A. V. Schally, Peptides 5:241–347, 1984) with modification (Z. Rekasi and A. V. Schally, P.N.A.S. 90:2146–2149, 1993).
Briefly, the cells are preincubated with peptides for 9 minutes (3 mL) at various concentrations. Immediately after the incubation, 1 nM hGH-RH(1–29)NH2 is administered for 3 minutes (1 mL) [0 minute response]. To check the duration of the antagonistic effect of the analogue, 1 nM hGH-RH(1–29)NH2 is applied 30, 60, 90, and 120 minutes later for 3 minutes [30, 60, 90, 120 min responses]. Net integral values of the GH responses are evaluated. GH responses are compared to and expressed as percent of the original GH response induced by 1 nM GH-RH(1–29)NH2. The effect of the new antagonists are compared to that of [Ac-Tyr^1,D-Arg^2]hGH-RH(1–29)NH2, the “Standard antagonist”.
Growth Hormone Radio-immunoassay.
Rat GH levels in aliquots of undiluted and diluted superfusion samples were measured by double-antibody radioimmunoassay using materials supplied by the National Hormone and Pituitary Program, Baltimore, Md. The results of RIA were analyzed with a computer program developed in our institute (V. Csernus and A. V. Schally, in Neuroendocrine Research Methods, Harwood Academic (Greenstein, B. D. ed., London, pp. 71–109, 1991), hereby incorporated by reference. Inter-assay variation was less than 15% and intra-assay variation was less than 10%.

The subject of assay [2] is GH release stimulated by hGH-RH(1–29)NH2. The assay is described as follows: In vivo inhibition of serum GH response in rats. Details: species or system rat. The method, then:
GH-RH antagonistic effect of the analogs was tested on young male Sprague-Dawley rats (200–250 g). In each experiment, 5 groups of 7 animals each were used. The compounds (80 μg/kg) and GH-RH(1–29)NH2 (3 μg/kg) were dissolved in 5.5% mannitol and given intravenously to the jugular vein of the rats under Nembutal anesthesia. The time elapsed between the administrations of the antagonist and GH-RH varied between groups, according to the following schedule. The first group of animals received GH-RH injection 5 min after the administration of the antagonist; for the second, third and fourth group of animals, the time interval elapsed between the injection of the antagonist and that of GH-RH was 15, 30, and 60 min, respectively. The control group was first injected with the solvent alone instead of the antagonist, followed by a GH-RH injection 5 min later.
0.4 mL blood samples were taken for GH RIA before the administration of the antagonist (“blood0”), and 5 min after the injection of GH-RH (“blood1”). The GH response in each group was calculated as rGH=(GHblood1/GHblood0), mean±S.E.M. of the individual differences. Relative inhibition of GH response (%) in each group treated was calculated as […].

We go through four substances from patent US7026281B1, “Antagonistic analogs of GH-RH inhibiting IGF-I and -II” (The Administrators of the Tulane Educational Fund, priority 1998, dated 2006).

With “[Nac^0, His^1, D-Arg^2, Phe(pCl)^6, Arg^9, Abu^15, Nle^27, D-Arg^28, Har^29]hGH-RH(1–29)NH2 [Peptide 8]”, the “Inhibition of GH release (%) 30 min” value in assay [1] stood at 100%. In assay [1], the “Inhibition of GH release (%) 60 min” value is recorded as 98%. In addition, in assay [1], the “Inhibition of GH release (%) 90 min” value is given as 97%. In addition, in assay [1], the “Inhibition of GH release (%) 120 min” value is given as 90%. For the same substance, in assay [1], the “Inhibition of GH release (%) 0 min” value is 100%. For the same substance, in assay [2] (80 μg/kg i.v., rats), the “Inhibition of the GH release stimulated by hGH-RH(1–29)NH2 (in words)” value was “strong and long-lasting inhibition”. The “Relative inhibition % of GH response” value amounted to 74% in assay [2] (antagonist 80 μg/kg i.v. 5 min before GH-RH), 46% in assay [2] (antagonist 80 μg/kg i.v. 15 min before GH-RH), 8% in assay [2] (antagonist 80 μg/kg i.v. 30 min before GH-RH) and 1% in assay [2] (antagonist 80 μg/kg i.v. 60 min before GH-RH). Further, the “GH response mean ± S.E.M.” value in assay [2] (antagonist 80 μg/kg i.v. 15 min before GH-RH 3 μg/kg) is on record as 3.6 ± 0.4; in assay [2] (antagonist 80 μg/kg i.v. 30 min before GH-RH 3 μg/kg), 5.5 ± 0.6; in assay [2] (antagonist 80 μg/kg i.v. 60 min before GH-RH 3 μg/kg) it was 5.8 ± 0.7; in assay [2] (rGH=GHblood1/GHblood0, antagonist 80 μg/kg i.v. 5 min before GH-RH 3 μg/kg) it was 2.3 ± 0.3.
As to “[PhAc^0, D-Arg^2, Phe(pCl)^6, Arg^9, Tyr(Me)^10, Abu^15, Nle^27, D-Arg^28, Har^29]hGH-RH(1–29)NH2 [Peptide 6]”, in assay [1], the “Inhibition of GH release (%) 30 min” value is given as 93%, the “Inhibition of GH release (%) 60 min” value came out at 97%, the “Inhibition of GH release (%) 90 min” value is given as 95% and the “Inhibition of GH release (%) 120 min” value worked out at 90%. In addition, the “Inhibition of GH release (%) 0 min” value in assay [1] came out at 93%.
Take “[PhAc^0, D-Arg^2, Phe(pCl)^6, Tyr(Me)^10, Abu^15, D-Arg^27, Arg^28, D-Arg^29]hGH-RH(1–29)NH2 [Peptide 19]”: in assay [1], the “Inhibition of GH release (%) 30 min” value was 47%, the “Inhibition of GH release (%) 60 min” value worked out at 59%, the “Inhibition of GH release (%) 90 min” value amounted to 23% and the “Inhibition of GH release (%) 120 min” value stood at 39%. In addition, the “Inhibition of GH release (%) 0 min” value in assay [1] came to 58%.
On to “[PhAc^0, His^1, D-Arg^2, Phe(pCl)^6, Arg^9, Abu^15, Nle^27, D-Arg^28, Har^29]hGH-RH(1–29)NH2 [Peptide 7]”, for which, in assay [1], the “Inhibition of GH release (%) 30 min” value was 92%, the “Inhibition of GH release (%) 60 min” value was determined as 82%, the “Inhibition of GH release (%) 90 min” value worked out at 77% and the “Inhibition of GH release (%) 120 min” value was determined as 65%. Further, the “Inhibition of GH release (%) 0 min” value in assay [1] is given as 97%.
